One assay has as its system Echinochloa crus-galli (ECHCG). Description: Post-emergence herbicidal activity (B2). In kind it is in vivo. As to conditions: Test B2a, 1000 g/ha, evaluated after 13 days, 5=total damage to plant, 0=no damage to plant. Put shortly: (§1)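 Scores run from 0 (no damage) to 5 (total plant damage), assessed 13 days after spraying. Seedlings had grown 8 days under controlled glasshouse conditions before treatment with an aqueous spray from an acetone/water (50:50) formulation with 0.5% Tween 20.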
Regarding `CNc1ccc(-c2cncc(C#N)c2)nc1C(F)(F)F` [Compound A1], the ECHCG damage score was determined as 3.
The same measure, in the same setting: with `CCCCCNc1ccc(-c2cncc(F)c2)nc1C(F)(F)F` [Compound A54] the figure was 3; with `Fc1cncc(-c2ccc(N3CC(F)(F)C(F)(F)C3)c(C(F)(F)F)n2)c1` [Compound A62], 3.
For the compound `Fc1cncc(-c2ccc(NC3CC3)c(C(F)(F)F)n2)c1` [Compound A46], the ECHCG damage score was determined as 4.
`N#Cc1nc(-c2cncnc2)ccc1N` [Compound A44]: the ECHCG damage score stood at 3.
For the compound `Fc1cncc(-c2ccc(NCc3cscn3)c(C(F)(F)F)n2)c1` [Compound A57], the ECHCG damage score is reported as 5.

Another assay deals with Lolium perenne (LOLPE). Description: Post-emergence herbicidal activity (B2). In kind it is in vivo. As to conditions: Test B2a, 1000 g/ha, evaluated after 13 days, 5=total damage to plant, 0=no damage to plant. The method, boiled down:
as §1
`CNc1ccc(-c2cncc(C#N)c2)nc1C(F)(F)F` [Compound A1] registered an LOLPE damage score of 2.
Consider `CCCCCNc1ccc(-c2cncc(F)c2)nc1C(F)(F)F` [Compound A54], for which the LOLPE damage score was 2.
On the same count and under the same terms, with `Fc1cncc(-c2ccc(N3CC(F)(F)C(F)(F)C3)c(C(F)(F)F)n2)c1` [Compound A62] the figure was 2; with `Fc1cncc(-c2ccc(NC3CC3)c(C(F)(F)F)n2)c1` [Compound A46], 2; with `N#Cc1nc(-c2cncnc2)ccc1N` [Compound A44], 1.
Same read-out and setting: with `Fc1cncc(-c2ccc(NCc3cscn3)c(C(F)(F)F)n2)c1` [Compound A57] the figure was 4.

Another assay has as its system Setaria faberi (SETFA). Description: Post-emergence herbicidal activity (B2). Format: in vivo. As to conditions: Test B2a, 1000 g/ha, evaluated after 13 days, 5=total damage to plant, 0=no damage to plant. The method, boiled down: as §1
As for `CNc1ccc(-c2cncc(C#N)c2)nc1C(F)(F)F` [Compound A1], the SETFA damage score came out at 5.
`CCCCCNc1ccc(-c2cncc(F)c2)nc1C(F)(F)F` [Compound A54]: the SETFA damage score worked out at 5.
Consider `Fc1cncc(-c2ccc(N3CC(F)(F)C(F)(F)C3)c(C(F)(F)F)n2)c1` [Compound A62], for which the SETFA damage score was found to be 5.
`Fc1cncc(-c2ccc(NC3CC3)c(C(F)(F)F)n2)c1` [Compound A46] returned an SETFA damage score of 4.
In the case of `N#Cc1nc(-c2cncnc2)ccc1N` [Compound A44], the SETFA damage score came to 4.
As to `Fc1cncc(-c2ccc(NCc3cscn3)c(C(F)(F)F)n2)c1` [Compound A57], the SETFA damage score turned out to be 5.

For another assay, the system named is Triticum aestivium (TRZAW). Briefly: Post-emergence herbicidal activity (B2). As to conditions: Test B2a, 1000 g/ha, evaluated after 13 days, 5=total damage to plant, 0=no damage to plant. In kind it is in vivo. Put shortly:
as §1
`CNc1ccc(-c2cncc(C#N)c2)nc1C(F)(F)F` [Compound A1] returned a TRAZW damage score of 2.
`CCCCCNc1ccc(-c2cncc(F)c2)nc1C(F)(F)F` [Compound A54]: the TRAZW damage score amounted to 0.
On to `Fc1cncc(-c2ccc(N3CC(F)(F)C(F)(F)C3)c(C(F)(F)F)n2)c1` [Compound A62], for which the TRAZW damage score was determined as 0.
The same measure, in the same setting: with `Fc1cncc(-c2ccc(NC3CC3)c(C(F)(F)F)n2)c1` [Compound A46] the figure was 1; with `N#Cc1nc(-c2cncnc2)ccc1N` [Compound A44], 0.
The same measure, in the same setting: with `Fc1cncc(-c2ccc(NCc3cscn3)c(C(F)(F)F)n2)c1` [Compound A57] the figure was 2.

In the next assay the test system is Avena fatua (AVEFA). Description: Post-emergence herbicidal activity (B2). Format: in vivo. As to conditions: Test B2a, 1000 g/ha, evaluated after 13 days, 5=total damage to plant, 0=no damage to plant. Put shortly: as §1
`CNc1ccc(-c2cncc(C#N)c2)nc1C(F)(F)F` [Compound A1]: the AVEFA damage score is 3.
Still for that read-out and setting: with `CCCCCNc1ccc(-c2cncc(F)c2)nc1C(F)(F)F` [Compound A54] the figure was 3; with `Fc1cncc(-c2ccc(N3CC(F)(F)C(F)(F)C3)c(C(F)(F)F)n2)c1` [Compound A62], 3.
`Fc1cncc(-c2ccc(NC3CC3)c(C(F)(F)F)n2)c1` [Compound A46]: the AVEFA damage score was determined as 3.
Consider `N#Cc1nc(-c2cncnc2)ccc1N` [Compound A44], for which the AVEFA damage score is recorded as 2.
On the same count and under the same terms, with `Fc1cncc(-c2ccc(NCc3cscn3)c(C(F)(F)F)n2)c1` [Compound A57] the figure was 4.

The next assay has as its system Alopecurus myosuroides (ALOMY). Briefly: Post-emergence herbicidal activity (B2). Format: in vivo. As to conditions: Test B2a, 1000 g/ha, evaluated after 13 days, 5=total damage to plant, 0=no damage to plant. The method, boiled down: as §1
On to `CNc1ccc(-c2cncc(C#N)c2)nc1C(F)(F)F` [Compound A1], for which the ALOMY damage score was found to be 0.
Compound `CCCCCNc1ccc(-c2cncc(F)c2)nc1C(F)(F)F` [Compound A54] registered an ALOMY damage score of 0.
As to `Fc1cncc(-c2ccc(N3CC(F)(F)C(F)(F)C3)c(C(F)(F)F)n2)c1` [Compound A62], the ALOMY damage score is recorded as 0.
Compound `Fc1cncc(-c2ccc(NC3CC3)c(C(F)(F)F)n2)c1` [Compound A46] had an ALOMY damage score of 1.
For `N#Cc1nc(-c2cncnc2)ccc1N` [Compound A44], the ALOMY damage score worked out at 0.
Consider `Fc1cncc(-c2ccc(NCc3cscn3)c(C(F)(F)F)n2)c1` [Compound A57], for which the ALOMY damage score was found to be 1.

Another assay relates to Echinochloa crus-galli (ECHCG). Description: Pre-emergence herbicidal activity (B1). Format: in vivo. As to conditions: Test 1a, 1000 g/ha, evaluated after 13 days, 5=total damage to plant, 0=no damage to plant. Put shortly: (§2)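 After one day of cultivation, soil pots were treated pre-emergence by spray with active ingredient in acetone/water (50:50) and 0.5% Tween 20. Evaluation at 13 days used a 0–5 scale, where 5 meant total plant damage.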
The compound `CNc1ccc(-c2cncc(C#N)c2)nc1C(F)(F)F` [Compound A1] displayed an ECHCG damage score of 1.
The compound `CCCCCNc1ccc(-c2cncc(F)c2)nc1C(F)(F)F` [Compound A54] gave an ECHCG damage score of 3.
As for `Fc1cncc(-c2ccc(N3CC(F)(F)C(F)(F)C3)c(C(F)(F)F)n2)c1` [Compound A62], the ECHCG damage score was determined as 3.
Still for that read-out and setting: with `Fc1cncc(-c2ccc(NC3CC3)c(C(F)(F)F)n2)c1` [Compound A46] the figure was 2; with `N#Cc1nc(-c2cncnc2)ccc1N` [Compound A44], 3; with `Fc1cncc(-c2ccc(NCc3cscn3)c(C(F)(F)F)n2)c1` [Compound A57], 5.

A further assay concerns Lolium perenne (LOLPE). Description: Pre-emergence herbicidal activity (B1). Format: in vivo. As to conditions: Test 1a, 1000 g/ha, evaluated after 13 days, 5=total damage to plant, 0=no damage to plant. The method, boiled down: as §2
Compound `CNc1ccc(-c2cncc(C#N)c2)nc1C(F)(F)F` [Compound A1] had an LOLPE damage score of 1.
`CCCCCNc1ccc(-c2cncc(F)c2)nc1C(F)(F)F` [Compound A54]: the LOLPE damage score is 1.
Consider `Fc1cncc(-c2ccc(N3CC(F)(F)C(F)(F)C3)c(C(F)(F)F)n2)c1` [Compound A62], for which the LOLPE damage score is 0.
`Fc1cncc(-c2ccc(NC3CC3)c(C(F)(F)F)n2)c1` [Compound A46] displayed an LOLPE damage score of 0.
Consider `N#Cc1nc(-c2cncnc2)ccc1N` [Compound A44], for which the LOLPE damage score came out at 2.
`Fc1cncc(-c2ccc(NCc3cscn3)c(C(F)(F)F)n2)c1` [Compound A57] displayed an LOLPE damage score of 1.

In a further assay the test system is Setaria faberi (SETFA). Briefly: Pre-emergence herbicidal activity (B1). In kind it is in vivo. As to conditions: Test 1a, 1000 g/ha, evaluated after 13 days, 5=total damage to plant, 0=no damage to plant. The method, boiled down: as §2
With `CNc1ccc(-c2cncc(C#N)c2)nc1C(F)(F)F` [Compound A1], the SETFA damage score is listed as 4.
`CCCCCNc1ccc(-c2cncc(F)c2)nc1C(F)(F)F` [Compound A54]: the SETFA damage score is on record as 5.
In the case of `Fc1cncc(-c2ccc(N3CC(F)(F)C(F)(F)C3)c(C(F)(F)F)n2)c1` [Compound A62], the SETFA damage score was found to be 5.
The same measure, in the same setting: with `Fc1cncc(-c2ccc(NC3CC3)c(C(F)(F)F)n2)c1` [Compound A46] the figure was 4; with `N#Cc1nc(-c2cncnc2)ccc1N` [Compound A44], 5; with `Fc1cncc(-c2ccc(NCc3cscn3)c(C(F)(F)F)n2)c1` [Compound A57], 5.

The next assay has as its system Triticum aestivium (TRZAW). Briefly: Pre-emergence herbicidal activity (B1). Format: in vivo. As to conditions: Test 1a, 1000 g/ha, evaluated after 13 days, 5=total damage to plant, 0=no damage to plant. The method, boiled down:
as §2
With `CNc1ccc(-c2cncc(C#N)c2)nc1C(F)(F)F` [Compound A1], the TRAZW damage score is given as 0.
In turn, `CCCCCNc1ccc(-c2cncc(F)c2)nc1C(F)(F)F` [Compound A54] returned a TRAZW damage score of 0.
`Fc1cncc(-c2ccc(N3CC(F)(F)C(F)(F)C3)c(C(F)(F)F)n2)c1` [Compound A62]: the TRAZW damage score came to 0.
Still for that read-out and setting: with `Fc1cncc(-c2ccc(NC3CC3)c(C(F)(F)F)n2)c1` [Compound A46] the figure was 0; with `N#Cc1nc(-c2cncnc2)ccc1N` [Compound A44], 0.
For the compound `Fc1cncc(-c2ccc(NCc3cscn3)c(C(F)(F)F)n2)c1` [Compound A57], the TRAZW damage score came to 0.

For another assay, the system named is Avena fatua (AVEFA). Description: Pre-emergence herbicidal activity (B1). As to conditions: Test 1a, 1000 g/ha, evaluated after 13 days, 5=total damage to plant, 0=no damage to plant. In kind it is in vivo. The method, boiled down:
as §2
Turning to `CNc1ccc(-c2cncc(C#N)c2)nc1C(F)(F)F` [Compound A1], the AVEFA damage score amounted to 1.
Compound `CCCCCNc1ccc(-c2cncc(F)c2)nc1C(F)(F)F` [Compound A54] came in with an AVEFA damage score of 1.
`Fc1cncc(-c2ccc(N3CC(F)(F)C(F)(F)C3)c(C(F)(F)F)n2)c1` [Compound A62] had an AVEFA damage score of 1.
The compound `Fc1cncc(-c2ccc(NC3CC3)c(C(F)(F)F)n2)c1` [Compound A46] showed an AVEFA damage score of 1.
On the same count and under the same terms, with `N#Cc1nc(-c2cncnc2)ccc1N` [Compound A44] the figure was 1; with `Fc1cncc(-c2ccc(NCc3cscn3)c(C(F)(F)F)n2)c1` [Compound A57], 3.

The test system of another assay is Alopecurus myosuroides (ALOMY). Briefly: Pre-emergence herbicidal activity (B1). In kind it is in vivo. As to conditions: Test 1a, 1000 g/ha, evaluated after 13 days, 5=total damage to plant, 0=no damage to plant. The method, boiled down: as §2
As to `CNc1ccc(-c2cncc(C#N)c2)nc1C(F)(F)F` [Compound A1], the ALOMY damage score is recorded as 0.
In the case of `CCCCCNc1ccc(-c2cncc(F)c2)nc1C(F)(F)F` [Compound A54], the ALOMY damage score is 0.
The compound `Fc1cncc(-c2ccc(N3CC(F)(F)C(F)(F)C3)c(C(F)(F)F)n2)c1` [Compound A62] gave an ALOMY damage score of 0.
`Fc1cncc(-c2ccc(NC3CC3)c(C(F)(F)F)n2)c1` [Compound A46]: the ALOMY damage score amounted to 0.
In turn, `N#Cc1nc(-c2cncnc2)ccc1N` [Compound A44] registered an ALOMY damage score of 0.
Same read-out and setting: with `Fc1cncc(-c2ccc(NCc3cscn3)c(C(F)(F)F)n2)c1` [Compound A57] the figure was 1.

These data come from patent US10986838B2, “Herbicides” (SYNGENTA PARTICIPATIONS AG, priority 2016, dated 2021).
